The values below come from patent US5563130A, “Methods for inhibiting angiogenesis, proliferation of endothelial or tumor cells and tumor growth” (American Cyanamid Company, priority 1994, dated 1996).

Values after ≈ are worked out from the molar mass of the structure shown.

One test deals with angiogenesis. Conditions: Cancer Research 51, 672-675, Brem et al; vs combination of heparin and cortisone; cited from earlier work.
The next test concerns Human Tumor Cell lines. Nature of the test: Antiproliferative activity in panel of human tumor cell lines. The format is cell-based. Conditions: average over the tested human tumor cell lines. The method, then:
(§1) PROTOCOL 1, 2, and 3 are described in greater detail hereinbelow. In general, according to PROTOCOLS 1 and 2, the target ABAE and/or Human Tumor cells are exposed to the compound of Formula I for 48 hours. PROTOCOL 3 exposes ABAE cell to the compound for 4 days. A detailed description of the protocol is as follows:
(§2) Antiproliferative Activity in Human Tumor and Adult Bovine Aortic Endothelial (ABAE) Cell Lines
(§3) The antiproliferative activity of the compounds of Formula I of the present invention is evaluated in a panel comprised of human tumor cell lines and an adult bovine aortic endothelial cell line (ABAE). The human tumor cell lines are from:
(§4) 2) Colon tumors: MIP, CaCo2, and SW620.
(§5) All cell lines are maintained in log phase in RPMI 1640 media, supplemented with 5% fetal calf serum, penicillin/streptomycin and 2 mM L-glutamine. Cultures are renewed after 20 passages with cells from a fresh stock of batch-frozen early passage cells. Cell lines are routinely checked for mycoplasma contamination (Genprobe). In a laminar flow hood, cells (1-5×10^4) are plated into 96-well microtiter plates in a volume of 0.1 ml/well with a bulk microtiter dispenser (Denley). […] At this concentration, dimethylsulfoxide has no effect on cell growth. Compounds are added using a Tomtec dispenser which simultaneously dispenses from one 96-well plate, containing the drug dilutions, to the plates containing the cells. After two days of continuous drug exposure, 50% cold trichloroacetic acid (TCA) is added to 10% final concentration to fix the cells, and after 60 minutes at 4° C., the TCA is aspirated and the plates are washed 5 times with deionized water using a microtiter plate washer. The number of cells on the plate are quantitated using a protein dye-binding assay (Monks et al., 1991). A 0.4% solution of the dye, sulforhodamine B, in glacial acetic acid is added to the plates, and the plates are washed 5 times with 1% glacial acetic acid using the automatic plate washed. The bound stain is solubilized with 0.1 ml of 10 mM Tris base. The optical densities are read from an automatic spectrophotometric plate reader (Dynatech) directly to a main frame computer (VAX 8600).
(§6) Positive controls, that include standard chemotherapeutic drugs (i.e., adriamycin, cisplatin, etc.), are included in every experiment.
(§7) Background optical density measurements (complete media-cells, and complete media+drug-cells) are automatically subtracted from the appropriate control and test wells. Mean values and standard errors are determined from duplicate wells. A measure is also made of the optical density at time when the drugs are added. The number of cells after treatment (P), as % of control, is calculated for every concentration of drug, as follows: [formula] wherein: T is optical density measurement for treated cells after 48 hours;
(§8) C is optical density measurement for untreated cells after 48 hours;
(§9) Co is optical density measurement for cells at the time of drug addition.
(§10) IC50 of growth inhibition is calculated from the sets of P values using the RS-1 data package (BBN Software).
(§11) The antiproliferative activity of the compounds of Formula I is evaluated in a panel comprised of human tumor cell lines and an adult bovine aortic endothelial cell line (ABAE) as listed in PROTOCOL 1. This assay is a modification of PROTOCOL 1. The modifications include:
(§12) 1) each concentration for each compound is tested in a single well;
(§13) 2) compounds are tested at 20, 4, 0.8, 0.16 microgram/ml and additionally in some experiments at 100 and 0.32 microgram/ml;
(§14) 3) samples are pipetted into a 96-well plate for each of the cell lines by a Beckman Biomek 1000 SL robot;
(§15) 4) after fixing with TCA each well is washed with 0.35 ml distilled water twice, not five times;
(§16) 5) after staining with sulforhodamine B each well is washed 3 times, not five times; […]

A further test relates to A2780/DDP. Nature of the test: Antiproliferative activity in human ovarian tumor cell line A2780/DDP. Conditions: Homo sapiens, A2780/DDP, read-out: A2780/DDP/DDP IC50, PROTOCOL 1 and PROTOCOL 2. Format: cell-based. The method, then:
as §1, §2, §3, §5, §6, §7, §8, §9, §10, §11, §12, §13, §14, §15, §16

Another test deals with tumor. Conditions: in conjunction with cancer chemotherapy or radiation therapy; Teicher et al; cited from earlier work.
The test system of a further test is MIP. The test is described as follows: Antiproliferative activity in human colon tumor cell line MIP. Format: cell-based. Conditions: Homo sapiens, PROTOCOL 1 and PROTOCOL 2. The method, then: as §1, §2, §3, §4, §5, §6, §7, §8, §9, §10, §11, §12, §13, §14, §15, §16
In another test the test system is SW620. The test is described as follows: Antiproliferative activity in human colon tumor cell line SW620. Format: cell-based. Conditions: Homo sapiens, SW-620, PROTOCOL 1 and PROTOCOL 2. The method, then: as §1, §2, §3, §4, §5, §6, §7, §8, §9, §10, §11, §12, §13, §14, §15, §16
Another test concerns A2780S. The test is described as follows: Antiproliferative activity in human ovarian tumor cell line A2780S. The format is cell-based. Conditions: Homo sapiens, A2780S, PROTOCOL 1 and PROTOCOL 2. The method, then: as §1, §2, §3, §5, §6, §7, §8, §9, §10, §11, §12, §13, §14, §15, §16
A further test concerns HTB 16. Nature of the test: Antiproliferative activity in human tumor cell line HTB 16. Format: cell-based. Conditions: Homo sapiens; ovarian tumor line; PROTOCOL 1 and PROTOCOL 2. The method, then:
as §1, §2, §3, §5, §6, §7, §8, §9, §10, §11, §12, §13, §14, §15, §16

Test [1] relates to Adult Bovine Aortic Endothelial (ABAE) cell line. Nature of the test: Antiproliferative activity in ABAE cells, PROTOCOL 2 (48 h, SRB, single well). Format: cell-based. Conditions: Bos taurus; ABAE cells, 48 h, PROTOCOL 2. The method, then:
as §1, §2, §11, §12, §13, §14, §15
5) after staining with sulforhodamine B each well is washed 3 times, not five times;
6) the growth inhibition (I) as % of control, is calculated using the RS-1 data package (BBN Software), for every concentration of drug, as follows: [formula] wherein: T is optical density measurement for treated cells after 48 hours;
as §8
7) IC50 of growth inhibition is determined from graphically from dose response curves, as is known in the art.
Table 1 presents the results depicting the antiproliferative activity of the compounds of Formula I against an Adult Bovine Aortic Endothelial (ABAE) cell line, as evaluated by PROTOCOL 1 and PROTOCOL 2. The results are presented in terms of IC50 and are as follows.

With `CN(C)c1ccc(O)c2c1C[C@H]1C[C@H]3[C@H](N(C)C)C(O)=C(C(N)=O)C(=O)[C@@]3(O)C(O)=C1C2=O` [Minocycline, reference compound], the “extent of angiogenesis inhibition” value in the test on angiogenesis is “comparable to that of the combination therapy of heparin and cortisone”. The IC50 in the test on Human Tumor Cell lines turned out to be 6.6 µg/mL (≈ 14.4 µM); in the test on A2780/DDP it was 6.1 µg/mL (≈ 13.3 µM); in the test on MIP, 6.1 µg/mL (≈ 13.3 µM); in the test with SW620 it was 6.5 µg/mL (≈ 14.2 µM); with A2780S, 6.1 µg/mL (≈ 13.3 µM); in the test on HTB 16, 5.8 µg/mL (≈ 12.7 µM). In test [1], this compound displayed an IC50 not below 20 µg/mL. Further, the number of metastases result in the test with tumor is on record as “reduced”. In addition, the tumor growth result with tumor is listed as “decreased”.
